Consider five compounds from patent US7632933B2, “Corticotropin releasing factor 2 receptor agonists” (priority 2002, dated 2009).

Read-outs that look alike come from different tables or passages of the source. Peptide text beside a SMILES is read from it.

One assay concerns the target T1, CRF2R (Homo sapiens, UniProt Q13324).
T1 sequence (Q13324 1-411): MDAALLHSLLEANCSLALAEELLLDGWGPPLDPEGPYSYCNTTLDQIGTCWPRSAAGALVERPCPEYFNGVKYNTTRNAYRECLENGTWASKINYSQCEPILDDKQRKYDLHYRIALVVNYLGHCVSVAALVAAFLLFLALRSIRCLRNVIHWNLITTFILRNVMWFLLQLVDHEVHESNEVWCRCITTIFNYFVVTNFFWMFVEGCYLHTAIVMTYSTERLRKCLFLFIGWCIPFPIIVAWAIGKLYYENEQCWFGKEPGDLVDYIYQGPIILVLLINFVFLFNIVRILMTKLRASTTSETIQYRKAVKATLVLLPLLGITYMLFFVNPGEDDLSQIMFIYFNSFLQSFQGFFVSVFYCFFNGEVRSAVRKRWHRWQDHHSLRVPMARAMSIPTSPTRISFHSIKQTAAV
The assay is described as follows: CRF2R agonist activity (EC50 and Emax), called comparative CRF binding. Type of assay: cell-based. As to conditions: CRF2R. The source says: (§1) The pharmacological activity and selectivity of the peptides of present invention can be determined using published test procedures. See, e.g, U.S. patent application Ser. No. 09/799,978. Because CRF2R and CRF1R are homologous proteins, it is expected that a certain proportion of agonists for CRF2R will also function as agonists of CRF1R. As discussed above, activation of CRF1R induces activation of the HPA axis since increased corticosteroid production leads to skeletal muscle atrophy. In most cases in which an increase in muscle mass or function is desired, it is not desirable to activate the HPA axis.
(§2) Because it is desirable to discriminate binding between CRF2R, as compared with CRF1R, the assays described above may be conducted using a cell, or membrane from a cell, which expresses only CRF2R or the assays can be conducted with a recombinant source of CRF2R. Cells expressing both forms of CRFR may be modified using homologous recombination to inactivate or otherwise disable the CRF1R gene. Alternatively, if the source of CRFR contains more than one CRFR type, the background signal produced by the receptor which is not of interest must be subtracted from the signal obtained in the assay. […] Known antagonists of CRFRs include, but are not limited to, antalarmin (CRF1R selective), antisauvagine-30 (CRF2R selective) and astressin (nonselective for CRF1R/CRF2R).
(§3) Cell-based assays include the steps of contacting cells which express CRF1R or CRF2R with a peptide of the present invention or control and measuring activation of the CRFR by measuring the expression or activity of components of the CRFR signal transduction pathways.
(§4) For example, after contact with a peptide of the present invention, lysates of the cells can be prepared and assayed for induction of cAMP. cAMP is induced in response to Gαs activation. Because Gαs is activated by receptors other than CRFR and because a test peptide may be exerting its effect through CRFRs or by another mechanism, two control comparisons are relevant for determining whether the peptide increases levels of cAMP via activation of a CRFR. One control compares the cAMP level of cells contacted with the peptide and the cAMP level of cells contacted with a control compound (i.e., the vehicle in which the peptide is dissolved).
(§5) In one example, cAMP induction is measured with the use of DNA constructs containing the cAMP responsive element linked to any of a variety of reporter genes can be introduced into cells expressing CRFRs. Such reporter genes include, but are not limited to, chloramphenicol acetyltransferase (CAT), luciferase, glucuronide synthetase, growth hormone, fluorescent proteins (e.g., Green Fluorescent Protein), or alkaline phosphatase. Following exposure of the cells to the peptide, the level of reporter gene expression can be quantitated to determine the peptide's ability to increase cAMP levels and thus determine the peptide's ability to activate the CRFR.
(§6) In addition to using cells expressing full length CRFRs, cells can be engineered which express CRFRs containing the ligand binding domain of the receptor coupled to, or physically modified to contain, reporter elements or to interact with signaling proteins. For example, a wild type CRFR or CRFR fragment can be fused to a G-protein resulting in activation of the fused G-protein upon agonist binding to the CRFR portion of the fusion protein. […] In addition, alternative pathways for induction of the CRE reporter could be eliminated to reduce basal levels.

A further assay addresses T2, CRF1R (Homo sapiens, UniProt P34998).
T2 sequence (P34998 24-415): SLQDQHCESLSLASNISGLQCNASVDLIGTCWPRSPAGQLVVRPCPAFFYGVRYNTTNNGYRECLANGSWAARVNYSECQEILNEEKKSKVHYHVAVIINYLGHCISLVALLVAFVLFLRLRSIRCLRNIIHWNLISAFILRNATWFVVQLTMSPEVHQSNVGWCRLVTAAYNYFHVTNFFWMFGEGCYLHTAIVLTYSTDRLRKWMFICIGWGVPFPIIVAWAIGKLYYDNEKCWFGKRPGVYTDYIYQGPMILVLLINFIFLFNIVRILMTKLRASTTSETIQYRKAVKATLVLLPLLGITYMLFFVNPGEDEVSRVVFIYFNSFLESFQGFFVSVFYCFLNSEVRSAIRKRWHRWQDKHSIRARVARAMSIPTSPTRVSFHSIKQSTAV
The assay is described as follows: CRF1R agonist activity (EC50 and Emax), called comparative CRF binding. In kind it is cell-based. As to conditions: CRF1R.
Description: as §1, §2, §3, §4, §5, §6

Usually EC50 stands for the concentration giving half of the maximal effect. Regarding `CC[C@H](C)[C@H](N)C(=O)N[C@H](C(=O)N[C@@H](CC(C)C)C(=O)N[C@@H](CO)C(=O)N[C@@H](CC(C)C)C(=O)N[C@@H](CC(=O)O)C(=O)N[C@H](C(=O)N1CCC[C@H]1C(=O)N[C@H](C(=O)NCC(=O)N[C@@H](CC(C)C)C(=O)N[C@@H](CC(C)C)C(=O)N[C@@H](CCC(N)=O)C(=O)N[C@H](C(=O)N[C@@H](CC(C)C)C(=O)N[C@@H](CC(C)C)C(=O)N[C@@H](CCC(=O)O)C(=O)N[C@@H](CCC(N)=O)C(=O)N[C@@H](C)C(=O)N[C@@H](CCCNC(=N)N)C(=O)N[C@@H](C)C(=O)N[C@@H](C)C(=O)N[C@@H](C)C(=O)N[C@@H](CCCNC(=N)N)C(=O)N[C@@H](CCC(=O)O)C(=O)N[C@@H](CCC(N)=O)C(=O)N[C@@H](C)C(=O)N[C@H](C(=O)N[C@H](C(=O)N[C@@H](CC(N)=O)C(=O)N[C@@H](C)C(=O)N[C@@H](CCCNC(=N)N)C(=O)N[C@H](C(=O)N[C@@H](CC(C)C)C(=O)N[C@@H](C)C(=O)N[C@@H](CCCNC(=N)N)C(=O)N[C@H](C(N)=O)C(C)C)[C@@H](C)CC)[C@@H](C)O)[C@@H](C)O)[C@@H](C)CC)[C@@H](C)CC)C(C)C)C(C)C` [compound 141] (H-IVLSLDVPIGLLQILLEQARAAAREQATTNARILARV-NH2), the concentration for a half-maximal effect (EC50) on CRF2R (read-out: CRF2R EC50) and at CRF1R (read-out: CRF1R EC50) was greater than 100 nM throughout.
For `CC[C@H](C)[C@H](N)C(=O)N[C@H](C(=O)N[C@@H](CC(C)C)C(=O)N[C@@H](CO)C(=O)N[C@@H](CC(C)C)C(=O)N[C@@H](CC(=O)O)C(=O)N[C@H](C(=O)N1CCC[C@H]1C(=O)N[C@H](C(=O)NCC(=O)N[C@@H](CC(C)C)C(=O)N[C@@H](CC(C)C)C(=O)N[C@@H](CCC(N)=O)C(=O)N[C@H](C(=O)N[C@@H](CC(C)C)C(=O)N[C@@H](CC(C)C)C(=O)N[C@@H](CCC(=O)O)C(=O)N[C@H](C(=O)N[C@@H](CCC(=O)O)C(=O)N[C@@H](CCCCN)C(=O)N[C@@H](CCC(N)=O)C(=O)N[C@@H](CCC(=O)O)C(=O)N[C@@H](CCCCN)C(=O)N[C@@H](CCC(=O)O)C(=O)N[C@@H](CCCCN)C(=O)N[C@@H](CCC(N)=O)C(=O)N[C@@H](CCC(N)=O)C(=O)N[C@@H](C)C(=O)N[C@@H](C)C(=O)N[C@@H](CC(N)=O)C(=O)N[C@@H](CC(N)=O)C(=O)N[C@@H](CCCNC(=N)N)C(=O)N[C@@H](CC(C)C)C(=O)N[C@@H](CC(C)C)C(=O)N[C@@H](CC(C)C)C(=O)N[C@@H](CC(=O)O)C(=O)N[C@H](C(=O)N[C@H](C(N)=O)[C@@H](C)CC)[C@@H](C)O)[C@@H](C)CC)[C@@H](C)CC)[C@@H](C)CC)C(C)C)C(C)C` [compound 158] (H-IVLSLDVPIGLLQILLEIEKQEKEKQQAANNRLLLDTI-NH2), the half-maximal effective concentration (EC50) is 6.37 nM on CRF2R (CRF2R EC50 (nM)) and greater than 100 nM at CRF1R (CRF1R EC50 (nM)).
On to `CC[C@H](C)[C@H](N)C(=O)N[C@H](C(=O)N[C@@H](CC(C)C)C(=O)N[C@@H](CO)C(=O)N[C@@H](CC(C)C)C(=O)N[C@@H](CC(=O)O)C(=O)N[C@H](C(=O)N1CCC[C@H]1C(=O)N[C@H](C(=O)NCC(=O)N[C@@H](CC(C)C)C(=O)N[C@@H](CC(C)C)C(=O)N[C@@H](CCC(N)=O)C(=O)N[C@@H](CCC(=O)O)C(=O)N[C@H](C(=O)N[C@@H](CC(C)C)C(=O)N[C@@H](CCC(=O)O)C(=O)N[C@@H](CCSC)C(=O)N[C@@H](C)C(=O)N[C@@H](CCCNC(=N)N)C(=O)N[C@@H](C)C(=O)N[C@@H](CCC(=O)O)C(=O)N[C@@H](CCC(N)=O)C(=O)N[C@@H](CC(C)C)C(=O)N[C@@H](C)C(=O)N[C@@H](CCC(N)=O)C(=O)N[C@@H](CCC(N)=O)C(=O)N[C@@H](C)C(=O)N[C@@H](Cc1c[nH]cn1)C(=O)N[C@@H](CO)C(=O)N[C@@H](CC(N)=O)C(=O)N[C@@H](CCCNC(=N)N)C(=O)N[C@@H](CCCCN)C(=O)N[C@@H](CC(C)C)C(=O)N[C@@H](CCSC)C(=O)N[C@@H](CCC(=O)O)C(=O)N[C@H](C(=O)N[C@H](C(N)=O)[C@@H](C)CC)[C@@H](C)CC)C(C)C)[C@@H](C)CC)C(C)C)C(C)C` [compound 165] (H-IVLSLDVPIGLLQEVLEMARAEQLAQQAHSNRKLMEII-NH2), for which the EC50 at CRF2R (read-out: CRF2R EC50) and on CRF1R (read-out: CRF1R EC50) was greater than 100 nM throughout.
With `CC[C@H](C)[C@H](NC(=O)[C@H](C)NC(=O)[C@H](CC(N)=O)NC(=O)[C@H](CCC(N)=O)NC(=O)[C@H](CCC(=O)O)NC(=O)[C@H](C)NC(=O)[C@H](CCCNC(=N)N)NC(=O)[C@H](CCC(=O)O)NC(=O)[C@H](CCCNC(=N)N)NC(=O)[C@H](CCC(N)=O)NC(=O)[C@H](CO)NC(=O)[C@H](CCC(N)=O)NC(=O)[C@@H](NC(=O)[C@H](CCCNC(=N)N)NC(=O)[C@H](C)NC(=O)[C@H](CC(C)C)NC(=O)[C@H](CCC(=O)O)NC(=O)[C@H](CC(C)C)NC(=O)[C@H](CC(C)C)NC(=O)[C@@H](NC(=O)[C@H](CCCNC(=N)N)NC(=O)[C@H](CC(C)C)NC(=O)[C@H](CC(C)C)NC(=O)[C@H](Cc1ccc(O)cc1)NC(=O)[C@@H](NC(=O)[C@@H]1CCCN1C(=O)[C@H](CC(C)C)NC(=O)[C@H](CC(=O)O)NC(=O)[C@@H](NC(=O)[C@H](CO)NC(=O)[C@H](CC(C)C)NC(=O)[C@H](CO)NC(=O)[C@@H]1CCCN1C(=O)[C@H](CC(N)=O)NC(=O)[C@@H](N)CC(=O)O)[C@@H](C)CC)[C@@H](C)O)[C@@H](C)O)[C@@H](C)O)C(=O)N[C@H](C(=O)N[C@@H](Cc1ccccc1)C(=O)N[C@@H](C)C(=O)N[C@@H](CO)C(=O)N[C@H](C(N)=O)C(C)C)[C@@H](C)CC` [compound 173] (H-DNPSLSIDLPTYLLRTLLELARTQSQRERAEQNAIIFASV-NH2), the EC50 was no less than 100 nM at CRF2R (read-out: CRF2R EC50) and no less than 1000 nM at CRF1R (read-out: CRF1R EC50).
For `CC[C@H](C)[C@H](NC(=O)[C@H](C)NC(=O)[C@H](CC(N)=O)NC(=O)[C@H](CCC(N)=O)NC(=O)[C@H](CCC(=O)O)NC(=O)[C@H](C)NC(=O)[C@H](CCCNC(=N)N)NC(=O)[C@H](CCC(=O)O)NC(=O)[C@H](CCCNC(=N)N)NC(=O)[C@H](CCC(N)=O)NC(=O)[C@H](CO)NC(=O)[C@H](CCC(N)=O)NC(=O)[C@@H](NC(=O)[C@H](CCCNC(=N)N)NC(=O)[C@H](C)NC(=O)[C@H](CC(C)C)NC(=O)[C@H](CCC(=O)O)NC(=O)[C@H](CC(C)C)NC(=O)[C@H](CC(C)C)NC(=O)[C@@H](NC(=O)[C@H](CCCNC(=N)N)NC(=O)[C@H](CC(C)C)NC(=O)[C@H](CC(C)C)NC(=O)[C@H](Cc1ccccc1)NC(=O)[C@H](Cc1ccccc1)NC(=O)[C@@H]1CCCN1C(=O)[C@H](CC(C)C)NC(=O)[C@H](CC(=O)O)NC(=O)[C@@H](NC(=O)[C@H](CO)NC(=O)[C@H](CC(C)C)NC(=O)[C@H](CO)NC(=O)[C@@H]1CCCN1C(=O)[C@H](CC(N)=O)NC(=O)[C@@H](N)CC(=O)O)[C@@H](C)CC)[C@@H](C)O)[C@@H](C)O)C(=O)N[C@H](C(=O)N[C@@H](Cc1ccccc1)C(=O)N[C@@H](C)C(=O)N[C@@H](CO)C(=O)N[C@H](C(N)=O)C(C)C)[C@@H](C)CC` [compound 184] (H-DNPSLSIDLPFFLLRTLLELARTQSQRERAEQNAIIFASV-NH2; N-terminus assumed), the figures for the EC50 on CRF2R (read-out: CRF2R EC50) and at CRF1R (read-out: CRF1R EC50) were 3.72 nM and 486 nM, respectively.
